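Five concentrations, 48 hours, 96-well plates. GI50 is the concentration that inhibits growth by half. TGI marks complete inhibition of growth.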
Key:
Test in all cases: NCI-60 cell line screen, 48 h; in the data active = GI50 below about 0.43 µM; inactive = the rest
SN12C renal = system: SN12C renal
A498 renal = system: A498 renal
SW-620 colon = system: SW-620 colon
HCT-116 colon = system: HCT-116 colon
K-562 leukemia = system: K-562 leukemia
CAKI-1 renal = system: CAKI-1 renal
NCI-H23 lung = system: NCI-H23 lung
T-47D breast = system: T-47D breast
HT29 colon = system: HT29 colon
BT-549 breast = system: BT-549 breast
HCC-2998 colon = system: HCC-2998 colon
HCT-15 colon = system: HCT-15 colon
SK-MEL-2 melanoma = system: SK-MEL-2 melanoma
COLO 205 colon = system: COLO 205 colon
NCI/ADR-RES ovarian = system: NCI/ADR-RES ovarian
KM12 colon = system: KM12 colon
EKVX NSCLC = system: EKVX NSCLC
M14 melanoma = system: M14 melanoma
786-0 renal = system: 786-0 renal
SK-MEL-5 melanoma = system: SK-MEL-5 melanoma
OVCAR-8 ovarian = system: OVCAR-8 ovarian
SR leukemia = system: SR leukemia
A549 NSCLC = system: A549 NSCLC
MDA-MB-231 breast = system: MDA-MB-231 breast
MCF7 breast = system: MCF7 breast
SK-MEL-28 melanoma = system: SK-MEL-28 melanoma
UACC-257 melanoma = system: UACC-257 melanoma
NCI-H460 lung = system: NCI-H460 lung
MALME-3M melanoma = system: MALME-3M melanoma
SK-OV-3 ovarian = system: SK-OV-3 ovarian
RPMI-8226 leukemia = system: RPMI-8226 leukemia
NCI-H226 lung = system: NCI-H226 lung
TK-10 renal = system: TK-10 renal
RXF 393 renal = system: RXF 393 renal
PC-3 prostate = system: PC-3 prostate
IGROV1 ovarian = system: IGROV1 ovarian
SF-295 CNS = system: SF-295 CNS
HL-60(TB) leukemia = system: HL-60(TB) leukemia
U251 CNS = system: U251 CNS
HOP-92 NSCLC = system: HOP-92 NSCLC
SF-539 CNS = system: SF-539 CNS
OVCAR-5 ovarian = system: OVCAR-5 ovarian
OVCAR-3 ovarian = system: OVCAR-3 ovarian
UO-31 renal = system: UO-31 renal
CCRF-CEM leukemia = system: CCRF-CEM leukemia
MOLT-4 leukemia = system: MOLT-4 leukemia
OVCAR-4 ovarian = system: OVCAR-4 ovarian
LOX IMVI melanoma = system: LOX IMVI melanoma
NCI-H522 lung = system: NCI-H522 lung
HOP-62 NSCLC = system: HOP-62 NSCLC
MDA-MB-435 = system: MDA-MB-435
SF-268 CNS = system: SF-268 CNS
UACC-62 melanoma = system: UACC-62 melanoma
ACHN renal = system: ACHN renal
DU-145 prostate = system: DU-145 prostate
SNB-19 CNS = system: SNB-19 CNS
SNB-75 CNS = system: SNB-75 CNS
HS 578T breast = system: HS 578T breast
MDA-N = system: MDA-N

C#CC#CC#CC#CC#CC#CC#CC#CCC1OCC(COC(=O)O[C@@H](C(=O)O[C@H]2C[C@@]3(O)[C@@H](OC(=O)c4ccccc4)[C@@H]4[C@]5(OC(C)=O)CO[C@@H]5C[C@H](O)[C@@]4(C)C(=O)[C@H](OC(C)=O)C(=C2C)C3(C)C)[C@@H](NC(=O)c2ccccc2)c2ccccc2)O1 (stereo partly specified)
> 33.3 µM: TGI (SN12C renal) | TGI (SW-620 colon) | TGI (HCT-116 colon) | TGI (K-562 leukemia) | TGI (CAKI-1 renal) | TGI (NCI-H23 lung) | TGI (T-47D breast) | TGI (HT29 colon) | TGI (BT-549 breast) | TGI (HCC-2998 colon) | TGI (HCT-15 colon) | TGI (SK-MEL-2 melanoma) | TGI (NCI/ADR-RES ovarian) | TGI (KM12 colon) | TGI (EKVX NSCLC) | TGI (786-0 renal) | TGI (OVCAR-8 ovarian) | TGI (SR leukemia) | TGI (A549 NSCLC) | TGI (MDA-MB-231 breast) | TGI (MCF7 breast) | TGI (SK-MEL-28 melanoma) | TGI (UACC-257 melanoma) | TGI (NCI-H460 lung) | TGI (MALME-3M melanoma) | TGI (SK-OV-3 ovarian) | TGI (RPMI-8226 leukemia) | TGI (NCI-H226 lung) | TGI (TK-10 renal) | TGI (PC-3 prostate) | TGI (IGROV1 ovarian) | TGI (U251 CNS) | TGI (HOP-92 NSCLC) | TGI (OVCAR-5 ovarian) | TGI (UO-31 renal) | TGI (CCRF-CEM leukemia) | TGI (MOLT-4 leukemia) | TGI (OVCAR-4 ovarian) | TGI (LOX IMVI melanoma) | TGI (NCI-H522 lung) | TGI (HOP-62 NSCLC) | TGI (SF-268 CNS) | TGI (UACC-62 melanoma) | TGI (ACHN renal) | TGI (SNB-19 CNS)
> 8.96 µM: TGI (RXF 393 renal)
> 9.85 µM: TGI (SK-MEL-5 melanoma)
0.189 µM: TGI (SNB-75 CNS)
active: GI50 (A498 renal) 0.191 µM | GI50 (SW-620 colon) 0.104 µM | GI50 (HCT-116 colon) 0.0533 µM | GI50 (K-562 leukemia) 0.121 µM | GI50 (T-47D breast) 0.205 µM | GI50 (HT29 colon) 0.0387 µM | GI50 (HCC-2998 colon) 0.287 µM | GI50 (COLO 205 colon) 0.103 µM | GI50 (KM12 colon) 0.0986 µM | GI50 (M14 melanoma) 0.16 µM | GI50 (OVCAR-8 ovarian) 0.187 µM | GI50 (SR leukemia) 0.0991 µM | GI50 (A549 NSCLC) 0.175 µM | GI50 (MCF7 breast) 0.0461 µM | GI50 (SK-MEL-28 melanoma) 0.25 µM | GI50 (NCI-H460 lung) 0.0426 µM | GI50 (MALME-3M melanoma) 0.28 µM | GI50 (RPMI-8226 leukemia) 0.0472 µM | GI50 (PC-3 prostate) 0.268 µM | GI50 (IGROV1 ovarian) 0.235 µM | GI50 (HL-60(TB) leukemia) 0.099 µM | GI50 (U251 CNS) 0.162 µM | GI50 (SF-539 CNS) 0.156 µM | GI50 (OVCAR-5 ovarian) 0.25 µM | GI50 (OVCAR-3 ovarian) 0.0971 µM | GI50 (CCRF-CEM leukemia) 0.191 µM | GI50 (MOLT-4 leukemia) 0.212 µM | GI50 (LOX IMVI melanoma) 0.0275 µM | GI50 (NCI-H522 lung) 0.166 µM | GI50 (MDA-MB-435) 0.0167 µM | GI50 (SF-268 CNS) 0.379 µM | GI50 (DU-145 prostate) 0.0961 µM | GI50 (SNB-75 CNS) 0.0244 µM | GI50 (HS 578T breast) 0.108 µM
inactive: GI50 (SN12C renal) 0.51 µM | GI50 (CAKI-1 renal) 0.446 µM | GI50 (NCI-H23 lung) 0.465 µM | GI50 (BT-549 breast) 0.586 µM | GI50 (HCT-15 colon) > 9.51 µM | GI50 (SK-MEL-2 melanoma) 0.603 µM | GI50 (NCI/ADR-RES ovarian) > 33.3 µM | GI50 (EKVX NSCLC) > 26.3 µM | GI50 (786-0 renal) 2.15 µM | GI50 (SK-MEL-5 melanoma) 0.671 µM | GI50 (MDA-MB-231 breast) 0.447 µM | GI50 (UACC-257 melanoma) > 8.95 µM | GI50 (SK-OV-3 ovarian) 0.51 µM | GI50 (NCI-H226 lung) 2.22 µM | GI50 (TK-10 renal) > 16.3 µM | GI50 (RXF 393 renal) 0.599 µM | GI50 (SF-295 CNS) 0.581 µM | GI50 (UO-31 renal) > 33.3 µM | GI50 (OVCAR-4 ovarian) > 33.3 µM | GI50 (HOP-62 NSCLC) 0.775 µM | GI50 (UACC-62 melanoma) 0.511 µM | GI50 (ACHN renal) > 24.7 µM | GI50 (SNB-19 CNS) 0.612 µM
0.0434 µM: TGI (MDA-MB-435)
> 26.8 µM: TGI (COLO 205 colon)
1.97 µM: TGI (SF-539 CNS)
> 11.6 µM: TGI (SF-295 CNS)

O=S(=O)(c1ccc(NC2=NC(c3ccc(O)cc3)(c3ccccc3O)c3ccccc32)cc1)c1ccc(NC2=NC(c3ccc(O)cc3)(c3ccccc3O)c3ccccc32)cc1 (stereo unspecified)
13.1 µM: TGI (MALME-3M melanoma)
22.9 µM: TGI (SK-MEL-2 melanoma)
> 100 µM: TGI (SW-620 colon) | TGI (K-562 leukemia) | TGI (NCI/ADR-RES ovarian) | TGI (SK-MEL-5 melanoma) | TGI (A549 NSCLC) | TGI (MCF7 breast) | TGI (RPMI-8226 leukemia) | TGI (TK-10 renal) | TGI (RXF 393 renal) | TGI (U251 CNS) | TGI (SF-539 CNS) | TGI (OVCAR-3 ovarian) | TGI (UO-31 renal) | TGI (CCRF-CEM leukemia) | TGI (LOX IMVI melanoma) | TGI (HOP-62 NSCLC) | TGI (UACC-62 melanoma) | TGI (ACHN renal) | TGI (SNB-19 CNS) | TGI (HS 578T breast)
> 44.6 µM: TGI (MDA-MB-231 breast)
59.4 µM: TGI (CAKI-1 renal)
> 70.6 µM: TGI (HOP-92 NSCLC)
> 40.7 µM: TGI (OVCAR-8 ovarian)
> 35.4 µM: TGI (DU-145 prostate)
> 52.7 µM: TGI (HT29 colon)
19.2 µM: TGI (NCI-H226 lung)
13.7 µM: TGI (OVCAR-4 ovarian)
> 28.8 µM: TGI (786-0 renal)
> 73.3 µM: TGI (SK-OV-3 ovarian)
8.01 µM: TGI (NCI-H23 lung)
> 73.6 µM: TGI (OVCAR-5 ovarian)
47.5 µM: TGI (NCI-H460 lung)
> 58.7 µM: TGI (PC-3 prostate)
> 28 µM: TGI (SK-MEL-28 melanoma)
44.8 µM: TGI (A498 renal)
> 29.2 µM: TGI (M14 melanoma)
> 47.9 µM: TGI (UACC-257 melanoma)
4.76 µM: TGI (NCI-H522 lung)
25.2 µM: TGI (HCT-116 colon)
5.09 µM: TGI (HL-60(TB) leukemia)
60.1 µM: TGI (MOLT-4 leukemia)
> 52.6 µM: TGI (EKVX NSCLC)
> 27.5 µM: TGI (SNB-75 CNS)
22.2 µM: TGI (IGROV1 ovarian)
> 23.1 µM: TGI (MDA-N)
> 24.6 µM: TGI (MDA-MB-435)
> 81 µM: TGI (HCT-15 colon)
> 33.6 µM: TGI (COLO 205 colon)
> 21.4 µM: TGI (KM12 colon)
> 44.5 µM: TGI (SF-268 CNS)
15.4 µM: TGI (HCC-2998 colon)
> 49.6 µM: TGI (SR leukemia)
> 53.2 µM: TGI (SF-295 CNS)
> 29.9 µM: TGI (SN12C renal)

From PubChem BioAssay (NCI)
